From ChEMBL document CHEMBL1201862, “PubChem BioAssay data set” (2004)
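A five-concentration, 48-hour dose response in 96-well plates underlies each endpoint, interpolated linearly between surrounding concentrations. GI50: concentration for 50% inhibition of growth.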 Active and inactive are the calls of the source. Rule as the data show it: active = GI50 up to about 1.1 µM and inactive = higher.

Experiments:
Assay in all cases: inhibition of tumour cell growth, NCI panel, 48 h
ACHN = test system: ACHN
SW-620 = test system: SW-620
786-0 = test system: 786-0
HT-29 = test system: HT-29
NCI-H226 = test system: NCI-H226
MDA-N = test system: MDA-N
SNB-19 = test system: SNB-19
SK-MEL-28 = test system: SK-MEL-28
SF-268 = test system: SF-268
M14 = test system: M14
SK-MEL-5 = test system: SK-MEL-5
K562 = test system: K562
MDA-MB-231 = test system: MDA-MB-231
SF-295 = test system: SF-295
Malme-3M = test system: Malme-3M
TK-10 = test system: TK-10
KM12 = test system: KM12
OVCAR-8 = test system: OVCAR-8
SR = test system: SR
Hs-578T = test system: Hs-578T
EKVX = test system: EKVX
MDA-MB-435 = test system: MDA-MB-435
T47D = test system: T47D
MOLT-4 = test system: MOLT-4
HOP-62 = test system: HOP-62
OVCAR-4 = test system: OVCAR-4
A498 = test system: A498
UO-31 = test system: UO-31
NCI-H460 = test system: NCI-H460
NCI-H522 = test system: NCI-H522
NCI/ADR-RES = test system: NCI/ADR-RES
NCI-H23 = test system: NCI-H23
SK-MEL-2 = test system: SK-MEL-2
U-251 = test system: U-251
HL-60 = test system: HL-60
HCT-116 = test system: HCT-116
LOX IMVI = test system: LOX IMVI
HCT-15 = test system: HCT-15
PC-3 = test system: PC-3
UACC-257 = test system: UACC-257
DU-145 = test system: DU-145
HOP-92 = test system: HOP-92
IGROV-1 = test system: IGROV-1
RXF 393 = test system: RXF 393
SN12C = test system: SN12C
CCRF-CEM = test system: CCRF-CEM
OVCAR-5 = test system: OVCAR-5
UACC-62 = test system: UACC-62
BT-549 = test system: BT-549
A549 = test system: A549
OVCAR-3 = test system: OVCAR-3
COLO 205 = test system: COLO 205
CAKI-1 = test system: CAKI-1
SF-539 = test system: SF-539
SNB-75 = test system: SNB-75
SK-OV-3 = test system: SK-OV-3
MCF7 = test system: MCF7
RPMI-8226 = test system: RPMI-8226
HCC 2998 = test system: HCC 2998

COc1c(NC(C)=O)c2ccccc2c2ccccc12
GI50 (ACHN): > 100 µM (inactive) | GI50 (SW-620): > 100 µM (inactive) | GI50 (786-0): > 100 µM (inactive) | GI50 (HT-29): > 100 µM (inactive) | GI50 (NCI-H226): 49.5 µM (inactive) | GI50 (MDA-N): > 100 µM (inactive) | GI50 (SNB-19): > 100 µM (inactive) | GI50 (SK-MEL-28): > 100 µM (inactive) | GI50 (SF-268): > 100 µM (inactive) | GI50 (M14): > 100 µM (inactive) | GI50 (SK-MEL-5): > 100 µM (inactive) | GI50 (K562): 75 µM (inactive) | GI50 (MDA-MB-231): > 100 µM (inactive) | GI50 (SF-295): > 100 µM (inactive) | GI50 (Malme-3M): > 100 µM (inactive) | GI50 (TK-10): > 100 µM (inactive) | GI50 (KM12): > 100 µM (inactive) | GI50 (OVCAR-8): > 100 µM (inactive) | GI50 (SR): > 100 µM (inactive) | GI50 (Hs-578T): > 100 µM (inactive) | GI50 (EKVX): > 100 µM (inactive) | GI50 (MDA-MB-435): > 100 µM (inactive) | GI50 (T47D): > 100 µM (inactive) | GI50 (MOLT-4): 66.5 µM (inactive) | GI50 (HOP-62): > 100 µM (inactive) | GI50 (OVCAR-4): > 100 µM (inactive) | GI50 (A498): > 100 µM (inactive) | GI50 (UO-31): 89.3 µM (inactive) | GI50 (NCI-H460): > 100 µM (inactive) | GI50 (NCI-H522): > 100 µM (inactive) | GI50 (NCI/ADR-RES): > 100 µM (inactive) | GI50 (NCI-H23): > 100 µM (inactive) | GI50 (SK-MEL-2): > 100 µM (inactive) | GI50 (U-251): > 100 µM (inactive) | GI50 (HL-60): 99.5 µM (inactive) | GI50 (HCT-116): > 100 µM (inactive) | GI50 (LOX IMVI): > 100 µM (inactive) | GI50 (HCT-15): > 100 µM | GI50 (PC-3): > 100 µM (inactive) | GI50 (UACC-257): > 100 µM (inactive) | GI50 (DU-145): > 100 µM (inactive) | GI50 (HOP-92): 42.2 µM (inactive) | GI50 (IGROV-1): > 100 µM (inactive) | GI50 (RXF 393): > 100 µM (inactive) | GI50 (SN12C): > 100 µM (inactive) | GI50 (CCRF-CEM): > 100 µM (inactive) | GI50 (OVCAR-5): > 100 µM (inactive) | GI50 (UACC-62): > 100 µM (inactive) | GI50 (BT-549): > 100 µM (inactive) | GI50 (A549): > 100 µM (inactive) | GI50 (OVCAR-3): > 100 µM (inactive)

O=[N+]([O-])c1ccc(-c2nc3ccccc3o2)cc1
GI50 (ACHN): > 100 µM (inactive) | GI50 (SW-620): > 100 µM (inactive) | GI50 (786-0): > 100 µM (inactive) | GI50 (NCI-H226): > 100 µM (inactive) | GI50 (MDA-N): > 100 µM (inactive) | GI50 (SNB-19): > 100 µM (inactive) | GI50 (SK-MEL-28): > 100 µM (inactive) | GI50 (SF-268): > 100 µM (inactive) | GI50 (M14): > 100 µM (inactive) | GI50 (SK-MEL-5): > 100 µM (inactive) | GI50 (K562): > 100 µM (inactive) | GI50 (SF-295): > 100 µM (inactive) | GI50 (Malme-3M): > 100 µM (inactive) | GI50 (COLO 205): > 100 µM (inactive) | GI50 (TK-10): > 100 µM (inactive) | GI50 (KM12): > 100 µM (inactive) | GI50 (CAKI-1): > 100 µM (inactive) | GI50 (SF-539): > 100 µM (inactive) | GI50 (OVCAR-8): > 100 µM (inactive) | GI50 (SR): > 100 µM (inactive) | GI50 (Hs-578T): > 100 µM (inactive) | GI50 (SNB-75): > 100 µM (inactive) | GI50 (EKVX): > 100 µM (inactive) | GI50 (MDA-MB-435): > 100 µM (inactive) | GI50 (T47D): > 100 µM (inactive) | GI50 (MOLT-4): > 100 µM (inactive) | GI50 (HOP-62): 69 µM (inactive) | GI50 (OVCAR-4): > 100 µM (inactive) | GI50 (A498): > 100 µM (inactive) | GI50 (UO-31): > 100 µM (inactive) | GI50 (NCI-H460): > 100 µM (inactive) | GI50 (NCI-H522): > 100 µM (inactive) | GI50 (NCI/ADR-RES): > 100 µM (inactive) | GI50 (NCI-H23): > 100 µM (inactive) | GI50 (SK-MEL-2): > 100 µM (inactive) | GI50 (U-251): > 100 µM (inactive) | GI50 (HCT-116): > 100 µM (inactive) | GI50 (LOX IMVI): > 100 µM (inactive) | GI50 (HCT-15): > 100 µM | GI50 (PC-3): > 100 µM (inactive) | GI50 (UACC-257): > 100 µM (inactive) | GI50 (DU-145): > 100 µM (inactive) | GI50 (HOP-92): > 100 µM (inactive) | GI50 (IGROV-1): > 100 µM (inactive) | GI50 (RXF 393): > 100 µM (inactive) | GI50 (SK-OV-3): > 100 µM (inactive) | GI50 (MCF7): > 100 µM (inactive) | GI50 (RPMI-8226): > 100 µM (inactive) | GI50 (SN12C): > 100 µM (inactive) | GI50 (CCRF-CEM): 40.4 µM (inactive) | GI50 (OVCAR-5): > 100 µM (inactive) | GI50 (UACC-62): > 100 µM (inactive) | GI50 (BT-549): > 100 µM (inactive) | GI50 (A549): > 100 µM (inactive) | GI50 (OVCAR-3): > 100 µM (inactive) | GI50 (HCC 2998): > 100 µM (inactive)

CNC(=O)C(NC(=O)[C@H](CC(C)C)NC(=O)[C@@H](S)CCN1C(=O)N(C)C(C)(C)C1=O)C(C)(C)C (some centres undefined)
GI50 (ACHN): > 100 µM (inactive) | GI50 (SW-620): > 100 µM (inactive) | GI50 (786-0): > 100 µM (inactive) | GI50 (HT-29): > 100 µM (inactive) | GI50 (NCI-H226): > 100 µM (inactive) | GI50 (MDA-N): > 100 µM (inactive) | GI50 (SNB-19): > 100 µM (inactive) | GI50 (SK-MEL-28): > 100 µM (inactive) | GI50 (SF-268): > 100 µM (inactive) | GI50 (M14): > 100 µM (inactive) | GI50 (SK-MEL-5): > 100 µM (inactive) | GI50 (K562): 79.6 µM (inactive) | GI50 (SF-295): > 100 µM (inactive) | GI50 (Malme-3M): > 100 µM (inactive) | GI50 (TK-10): > 100 µM (inactive) | GI50 (KM12): > 100 µM (inactive) | GI50 (CAKI-1): > 100 µM (inactive) | GI50 (OVCAR-8): > 100 µM (inactive) | GI50 (SR): > 100 µM (inactive) | GI50 (Hs-578T): > 100 µM (inactive) | GI50 (EKVX): > 100 µM (inactive) | GI50 (MDA-MB-435): > 100 µM (inactive) | GI50 (T47D): > 100 µM (inactive) | GI50 (MOLT-4): > 100 µM (inactive) | GI50 (HOP-62): > 100 µM (inactive) | GI50 (OVCAR-4): > 100 µM (inactive) | GI50 (A498): > 100 µM (inactive) | GI50 (UO-31): > 100 µM (inactive) | GI50 (NCI-H460): > 100 µM (inactive) | GI50 (NCI-H522): > 100 µM (inactive) | GI50 (NCI/ADR-RES): > 100 µM (inactive) | GI50 (NCI-H23): > 100 µM (inactive) | GI50 (SK-MEL-2): > 100 µM (inactive) | GI50 (HL-60): > 100 µM (inactive) | GI50 (HCT-116): > 100 µM (inactive) | GI50 (LOX IMVI): 2.91 µM (inactive) | GI50 (HCT-15): > 100 µM | GI50 (PC-3): > 100 µM (inactive) | GI50 (UACC-257): > 100 µM (inactive) | GI50 (DU-145): > 100 µM (inactive) | GI50 (HOP-92): > 100 µM (inactive) | GI50 (IGROV-1): > 100 µM (inactive) | GI50 (RXF 393): > 100 µM (inactive) | GI50 (SK-OV-3): > 100 µM (inactive) | GI50 (MCF7): > 100 µM (inactive) | GI50 (RPMI-8226): > 100 µM (inactive) | GI50 (SN12C): > 100 µM (inactive) | GI50 (OVCAR-5): > 100 µM (inactive) | GI50 (UACC-62): > 100 µM (inactive) | GI50 (BT-549): > 100 µM (inactive) | GI50 (A549): > 100 µM (inactive) | GI50 (HCC 2998): > 100 µM (inactive)
